Experimental data taken from patent US8609836B2, “4-aryl-2-anilino-pyrimidines” (Janssen Pharmaceutica NV, priority 2008, dated 2013).
pIC50: −log10 of the molar value.

Experiments:
AuroraB (h) = AuroraB (h) (Homo sapiens, UniProt Q96GD4); test: Aurora-B human kinase inhibition, SPA; format: biochemical; conditions: read-out: AuroraB pIC50 (converted)
Outline: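 AuroraB (0.5 μg/ml) phosphorylates 3 μM biotin-peptide using 0.5 μM ATP spiked with 33P-ATP in Hepes pH 7.5 with 3 mM MgCl2 and MnCl2, for 60 min at room temperature. EDTA stop solution carries streptavidin scintillant beads, and the captured radiolabel is imaged.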

MDA-MB-231 = test: Cellular proliferation assay (Alamar blue), MDA-MB-231; format: cell-based; conditions: Homo sapiens, 10% FCS, 72 hours with compound, Alamar blue 24 h, read-out: MDA/MB231 (cellular proliferation assay, Table 4) (converted)
Outline: (§1)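 Alamar blue fluorescence (544/590 nm) measured viable cells after 72 h compound exposure; dye incubation 4 h (HCT-116), 6 h (U87-MG) or 24 h (A2780, MDA-MB-231). Cells pre-seeded 24 h, grown in 10% FCS, 37° C, 5% CO2; effect expressed relative to control cells.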

A2780 = test: Cellular proliferation assay (Alamar blue), A2780; format: cell-based; conditions: Homo sapiens, 10% FCS, 72 hours with compound, Alamar blue 24 h, read-out: A2780 (cellular proliferation assay, Table 4) (converted)
Outline: as §1

H1299 = test: Cellular proliferation assay (Alamar blue), H1299; format: cell-based; conditions: Homo sapiens, NCI-H1299; 10% FCS; 72 hours with compound; Alamar blue 4 h
Outline: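 This proliferation assay on NCI-H1299 cells used an initial 24-hour compound-free incubation after seeding, followed by 72 hours of compound treatment with 10% FCS serum at 37° C. and 5% (v/v) CO2. Viable cells were quantified by a 4 h Alamar blue incubation and fluorescent plate reading at 544 nm/590 nm, and effects were expressed relative to control cells.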

CDK1/CyclinB (h) = CDK1/CyclinB (h) (Homo sapiens, UniProt P06493); test: CDK1/CyclinB human kinase inhibition, Invitrogen's FRET assay (Z'lyte); format: biochemical; conditions: read-out: CDK1 pIC50 (converted)
Sequence of CDK1/CyclinB (h) (P06493 whole entry): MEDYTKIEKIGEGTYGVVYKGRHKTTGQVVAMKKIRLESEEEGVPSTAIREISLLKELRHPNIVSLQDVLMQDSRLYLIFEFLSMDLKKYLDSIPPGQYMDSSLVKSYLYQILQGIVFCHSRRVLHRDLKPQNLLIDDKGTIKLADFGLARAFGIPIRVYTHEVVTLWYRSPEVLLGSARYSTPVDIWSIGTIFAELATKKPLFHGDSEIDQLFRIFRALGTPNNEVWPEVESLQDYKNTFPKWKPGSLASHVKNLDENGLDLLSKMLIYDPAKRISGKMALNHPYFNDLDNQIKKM
Sequence of CDK1/CyclinB (h) (P14635 whole entry partner): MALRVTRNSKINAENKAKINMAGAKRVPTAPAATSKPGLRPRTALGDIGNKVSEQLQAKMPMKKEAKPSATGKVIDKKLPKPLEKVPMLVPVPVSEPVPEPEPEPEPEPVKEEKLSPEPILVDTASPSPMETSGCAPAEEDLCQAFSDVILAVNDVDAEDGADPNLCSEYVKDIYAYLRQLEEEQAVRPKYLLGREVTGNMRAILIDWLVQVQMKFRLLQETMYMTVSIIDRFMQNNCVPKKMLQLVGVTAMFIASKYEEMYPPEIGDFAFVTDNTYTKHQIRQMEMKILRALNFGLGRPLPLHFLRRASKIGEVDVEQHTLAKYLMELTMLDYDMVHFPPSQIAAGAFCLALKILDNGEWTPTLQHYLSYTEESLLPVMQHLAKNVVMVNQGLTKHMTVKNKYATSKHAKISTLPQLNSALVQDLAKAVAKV
Outline: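 Read-out is the 460 nm/538 nm emission ratio (390 nm excitation) after a 60 min protease development step. Before that, 10 μM ATP and 2 μM Z'lyte Ser/Thr peptide 12 react 60 min at room temperature with 0.2 μg/ml human CDK1/CyclinB in Hepes pH 7.5 containing MgCl2, EGTA and Brij-35.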

HCT-116 = test: Cellular proliferation assay (Alamar blue), HCT-116; format: cell-based; conditions: Homo sapiens, 10% FCS, 72 hours with compound, Alamar blue 4 h
Outline: as §1

PLK4 (h) = PLK4 (h) (Homo sapiens, UniProt O00444); test: PLK-4 human kinase inhibition, scintillation proximity assay (SPA); format: biochemical; conditions: read-out: PLK4 pIC50 (converted)
Sequence of PLK4 (h) (O00444 whole entry): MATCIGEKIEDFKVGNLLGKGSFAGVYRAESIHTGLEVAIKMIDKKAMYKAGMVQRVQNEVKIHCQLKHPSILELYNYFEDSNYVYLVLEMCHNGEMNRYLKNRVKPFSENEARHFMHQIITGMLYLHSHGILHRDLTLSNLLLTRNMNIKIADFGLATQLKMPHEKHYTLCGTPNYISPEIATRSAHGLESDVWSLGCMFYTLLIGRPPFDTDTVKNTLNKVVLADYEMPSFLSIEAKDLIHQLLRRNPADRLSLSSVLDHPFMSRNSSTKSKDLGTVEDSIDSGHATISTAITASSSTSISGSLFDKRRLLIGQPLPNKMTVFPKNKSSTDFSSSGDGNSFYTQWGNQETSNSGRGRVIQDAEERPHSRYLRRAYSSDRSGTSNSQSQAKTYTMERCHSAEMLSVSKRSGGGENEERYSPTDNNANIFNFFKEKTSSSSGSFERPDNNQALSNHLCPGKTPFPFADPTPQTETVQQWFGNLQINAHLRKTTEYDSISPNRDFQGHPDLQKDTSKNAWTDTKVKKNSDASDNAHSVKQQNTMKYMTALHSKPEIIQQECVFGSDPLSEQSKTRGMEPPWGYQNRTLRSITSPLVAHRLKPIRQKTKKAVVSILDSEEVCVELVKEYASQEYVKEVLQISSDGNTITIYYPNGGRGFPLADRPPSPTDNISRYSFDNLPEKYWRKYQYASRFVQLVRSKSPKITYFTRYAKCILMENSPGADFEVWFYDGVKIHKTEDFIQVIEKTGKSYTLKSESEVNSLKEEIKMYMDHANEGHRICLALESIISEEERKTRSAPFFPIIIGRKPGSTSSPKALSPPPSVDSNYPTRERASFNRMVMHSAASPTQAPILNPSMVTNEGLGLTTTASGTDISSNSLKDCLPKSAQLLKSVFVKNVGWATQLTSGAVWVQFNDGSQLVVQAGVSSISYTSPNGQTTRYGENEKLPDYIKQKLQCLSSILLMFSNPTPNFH

PLK3 (h) = PLK3 (h) (Homo sapiens, UniProt Q9H4B4); test: PLK3 human kinase inhibition, SPA; format: biochemical; conditions: read-out: PLK3 pIC50 (converted)
Sequence of PLK3 (h) (Q9H4B4 whole entry): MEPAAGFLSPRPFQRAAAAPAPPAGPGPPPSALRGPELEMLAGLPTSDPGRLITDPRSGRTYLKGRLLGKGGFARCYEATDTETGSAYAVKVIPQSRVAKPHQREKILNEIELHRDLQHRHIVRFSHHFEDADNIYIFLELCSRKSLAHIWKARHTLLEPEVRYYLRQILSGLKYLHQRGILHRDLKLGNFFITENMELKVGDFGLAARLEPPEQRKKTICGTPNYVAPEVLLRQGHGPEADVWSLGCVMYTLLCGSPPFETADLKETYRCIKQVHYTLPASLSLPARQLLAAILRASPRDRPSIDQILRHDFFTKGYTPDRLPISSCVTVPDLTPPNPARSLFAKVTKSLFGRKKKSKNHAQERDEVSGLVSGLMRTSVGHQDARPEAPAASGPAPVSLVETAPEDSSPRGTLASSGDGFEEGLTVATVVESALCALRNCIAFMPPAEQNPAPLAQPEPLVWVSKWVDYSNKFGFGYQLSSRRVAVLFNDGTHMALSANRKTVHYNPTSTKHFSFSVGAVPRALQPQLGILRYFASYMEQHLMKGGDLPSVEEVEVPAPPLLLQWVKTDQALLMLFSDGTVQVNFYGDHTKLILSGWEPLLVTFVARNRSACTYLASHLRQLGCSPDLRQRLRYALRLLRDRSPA
Outline: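 Radiometric scintillation proximity format at pH 8.0 (Hepes, MnCl2, DTT). The 2 μM biotin-peptide substrate is phosphorylated by PLK3 (h) (30 μg/ml) using 0.1 μM ATP traced with 33P, for 20 min at room temperature. EDTA stop; phosphopeptide captured on streptavidin beads and imaged.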

PLK1 T210D (h) = PLK1 T210D (h) (Homo sapiens, UniProt P53350, T210D); test: PLK1 human kinase inhibition, SPA; format: biochemical; conditions: read-out: PLK1 pIC50 (converted)
Sequence of PLK1 T210D (h) (P53350 whole entry T210D): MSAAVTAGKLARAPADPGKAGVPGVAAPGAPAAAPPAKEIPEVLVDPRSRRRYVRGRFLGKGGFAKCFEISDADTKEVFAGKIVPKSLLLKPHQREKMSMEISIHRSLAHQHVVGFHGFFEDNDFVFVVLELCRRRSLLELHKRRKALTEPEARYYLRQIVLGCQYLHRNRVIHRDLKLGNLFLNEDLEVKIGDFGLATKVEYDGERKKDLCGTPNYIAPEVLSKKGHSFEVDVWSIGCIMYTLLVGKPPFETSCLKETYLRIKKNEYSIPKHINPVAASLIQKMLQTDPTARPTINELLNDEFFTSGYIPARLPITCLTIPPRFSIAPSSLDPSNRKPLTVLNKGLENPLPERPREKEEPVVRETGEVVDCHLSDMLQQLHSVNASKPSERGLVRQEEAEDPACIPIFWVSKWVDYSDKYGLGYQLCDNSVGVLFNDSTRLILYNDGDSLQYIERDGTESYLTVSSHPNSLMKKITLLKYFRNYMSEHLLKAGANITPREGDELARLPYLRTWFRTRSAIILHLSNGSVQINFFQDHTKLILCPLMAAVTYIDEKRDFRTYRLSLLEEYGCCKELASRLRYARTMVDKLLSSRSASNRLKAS
Outline: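 Kinase incubated 40 min at room temperature with 0.1 μM ATP (2 nM [γ-33P]ATP tracer), 2 μM biotinylated peptide, pH 8.0 Hepes buffer with 2 mM MnCl2 and 1 mM DTT; enzyme at 0.125 ng/ml. Stopped with EDTA; 33P-peptide bound to streptavidin scintillant beads and imaged.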

Sequence of AuroraB (h) (Q96GD4 whole entry): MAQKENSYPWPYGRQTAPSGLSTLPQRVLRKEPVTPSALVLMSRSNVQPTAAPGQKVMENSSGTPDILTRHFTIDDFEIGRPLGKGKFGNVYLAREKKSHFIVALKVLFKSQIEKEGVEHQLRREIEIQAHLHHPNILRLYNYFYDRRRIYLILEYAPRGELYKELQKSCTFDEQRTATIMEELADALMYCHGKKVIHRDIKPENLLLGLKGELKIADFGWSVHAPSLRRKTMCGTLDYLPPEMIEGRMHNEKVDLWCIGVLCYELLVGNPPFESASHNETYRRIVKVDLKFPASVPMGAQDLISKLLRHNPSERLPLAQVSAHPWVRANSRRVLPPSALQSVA

Compound	IC50 (AuroraB (h)) [µM]	IC50 (MDA-MB-231) [µM]	IC50 (A2780) [µM]	pIC50 (H1299)	IC50 (CDK1/CyclinB (h)) [µM]	pIC50 (HCT-116)	IC50 (PLK4 (h)) [µM]	IC50 (PLK3 (h)) [µM]	IC50 (PLK1 T210D (h)) [µM]
CN1CCNC(=O)C2CCN(CC2)Cc2cc(Br)cc(c2)Nc2nccc(n2)-c2ccc(cc2)C1 [Compound 60]	6.31	> 10	7.59	< 5.00	> 10	5.80	0.537	> 10	> 10
CC(C)Nc1cc2cc(c1)Nc1nccc(n1)-c1ccc(cc1)CN(C)CCNC(=O)C1CCN(CC1)C2 [Compound 61]	8.32	> 10	6.31	< 5.00	> 10	5.10	0.724	> 10	> 10
CN1CCNC(=O)C2CCN(CC2)Cc2cc(cc(N3CCOCC3)c2)Nc2nccc(n2)-c2ccc(cc2)C1 [Compound 68]	> 10	> 10	> 10	< 5.00	> 10	5.09	1.55	> 10	> 10
COc1ccc2cc1CN(C)CCCNC(=O)C1CCN(CC1)Cc1cc(cc(NC(C)C)c1)Nc1nccc-2n1 [Compound 70]	6.03	> 10	> 10	< 5.00	> 10	< 5.00	1.58	> 10	> 10
CN1CCCNC(=O)C2CCN(CC2)Cc2cc(cc(N3CCOCC3)c2)Nc2nccc(n2)-c2ccc(cc2)C1 [Compound 72]	> 10	> 10	> 10	< 5.00	> 10	5.47	2.34	> 10	> 10
COc1ccc2cc1CN(C)CCNC(=O)C1CCN(CC1)Cc1cc(cc(NC(C)C)c1)Nc1nccc-2n1 [Compound 75]	> 10	> 10	> 10	< 5.00	> 10	5.14	3.09	> 10	> 10
COc1ccc2cc1CN(C)CCCNC(=O)C1CCN(CC1)Cc1cc(Br)cc(c1)Nc1nccc-2n1 [Compound 76]	5.5	6.76	> 10	< 5.00	> 10	< 5.00	3.24	> 10	> 10
COc1ccc2cc1CN(C)CCNC(=O)C1CCN(CC1)Cc1cc(cc(N3CCOCC3)c1)Nc1nccc-2n1 [Compound 77]	> 10	> 10	> 10	< 5.00	> 10	< 5.00	4.79	> 10	> 10
CN1CCCNC(=O)C2CCN(CC2)Cc2cccc(c2)Nc2nccc(n2)-c2ccc(cc2)C1 [Compound 78]	> 10	7.59	> 10	< 5.00	> 10	< 5.00	4.9	> 10	> 10
COc1ccc2cc1CN(C)CCCNC(=O)C1CCN(CC1)Cc1cc(cc(N3CCOCC3)c1)Nc1nccc-2n1 [Compound 80]	> 10	> 10	> 10	< 5.00	> 10	< 5.00	5.37	> 10	> 10
COc1ccc2cc1CN(C)CCCNC(=O)C1CCN(CC1)Cc1cccc(c1)Nc1nccc-2n1 [Compound 81]	> 10	> 10	> 10	< 5.00	> 10	< 5.00	5.5	> 10	> 10
CN1CCNC(=O)C2CCN(CC2)Cc2cccc(c2)Nc2nccc(n2)-c2ccc(cc2)C1 [Compound 82]	> 10	> 10	> 10	< 5.00	> 10	< 5.00	6.31	> 10	> 10
COc1ccc2cc1CN(C)CCNC(=O)C1CCN(CC1)Cc1cccc(c1)Nc1nccc-2n1 [Compound 83]	> 10	> 10	> 10	< 5.00	> 10	< 5.00	> 10	> 10	> 10
O=C1NCCNc2cc(ccn2)-c2ccnc(n2)Nc2ccc(N3CCOCC3)c(c2)CN2CCC1CC2 [Compound 84]	7.08	> 10	> 10	< 5.00	> 10	< 5.00	5.37	> 10	> 10
C[C@H]1NCc2cc(ccc2N2CCOCC2)Nc2nccc(n2)-c2ccc(cc2)OCCCNC1=O [Compound 86]	10.5	> 10	> 10	< 5.00	> 10	< 5.00	0.209	> 10	> 10
C[C@H]1NCc2cc(ccc2N2CCOCC2)Nc2nccc(n2)-c2cccc(c2)OCCCNC1=O [Compound 87]	> 10	8.13	8.71	< 5.00	7.08	5.42	0.407	> 10	> 10
C[C@@H]1NCc2cc(ccc2N2CCOCC2)Nc2nccc(n2)-c2cccc(c2)OCCCNC1=O [Compound 88]	6.46	6.76	3.39	5.09	4.79	5.79	0.447	> 10	> 10
O=C1NCCCOc2cccc(c2)-c2ccnc(n2)Nc2ccc(N3CCOCC3)c(c2)CN[C@H]1CO [Compound 89]	> 10	> 10	6.76	< 5.00	> 10	5.36	0.525	> 10	> 10
O=C1NCCCOc2cccc(c2)-c2ccnc(n2)Nc2ccc(N3CCOCC3)c(c2)CN[C@H]1Cc1ccccc1 [Compound 91]	> 10	> 10	> 10	< 5.00	> 10	5.21	1.41	> 10	> 10
O=C1NCCCOc2ccc(cc2)-c2ccnc(n2)Nc2ccc(N3CCOCC3)c(c2)CN2CCC1CC2 [Compound 92]	> 10	2.51	0.525	6.08	1.02	6.51	0.398	> 10	> 10
O=C1NCCCOc2cccc(c2)-c2ccnc(n2)Nc2ccc(N3CCOCC3)c(c2)CN2CCC[C@@H]12 [Compound 96]	> 10	> 10	6.46	< 5.00	> 10	5.27	0.398	> 10	> 10
O=C1CN2CCN(CC2)Cc2cc(ccc2N2CCOCC2)Nc2nccc(n2)-c2cccc(c2)OCCCN1 [Compound 103]	> 10	> 10	> 10	< 5.00	> 10	< 5.00	1.1	> 10	> 10
CN1CCCNC(=O)[C@H](CO)NCc2cccc(c2)Nc2nccc(n2)-c2ccc(cc2)C1 [Compound 113]	> 10	> 10	> 10	< 5.00	> 10	< 5.00	1.17	> 10	> 10
